# Assay results from patent publication US20230278993A1, “NOVEL TRICYCLIC AROMATIC HETEROCYCLIC COMPOUND AND PREPARATION METHOD THEREFOR, PHARMACEUTICAL COMPOSITION AND USE THEREOF” (SHANGHAI LONGWOOD BIOPHARMACEUTICALS CO., LTD., priority 2020, published 2023).
# Target: PD-1/PD-L1 (Homo sapiens (Human), UniProt Q9NZQ7)
# Experiment: PD-1/PD-L1 homogeneous time-resolved fluorescence (HTRF) binding assay
# Details: recombinant human PD-L1 (19-238) His-tagged, human PD-1 (25-167) Fc tag; 25° C., PBS pH 7.4
# Procedure: Example A: PD-1/PD-L1 Homogeneous Time-Resolved Fluorescence (HTRF) Binding Assay
# Assays were performed in standard black 384-well polystyrene plates and a final volume was 20 μL. The inhibitor was first serially diluted with DMSO and added to the wells of the plate, followed by the addition of other reaction components. The final concentration of DMSO in the assay was 1%. Assays were performed at 25° C. in PBS buffer (pH 7.4) containing 0.05% Tween-20 and 0.1% BSA. Recombinant human PD-L1 protein (19-238) with a His-tagged at the C-terminus was purchased from AcroBiosystems (PD1-H5229). Recombinant human PD-1 protein (25-167) with an Fc tag at the C-terminus was also purchased from AcroBiosystems (PD1-H5257). The PD-L1 and PD-1 proteins were diluted in assay buffer and then […] of the solution was extracted and added to the wells of the plate. Plates were centrifuged and proteins and inhibitors were preincubated for 40 minutes. After incubation, […] of HTRF detection buffer containing europium […] labeled anti-human IgG (PerkinElmer-AD0212), Fc-specific and anti-His SureLight@-Allophycocyanin (APC, PerkinElmer-AD0059H) conjugated antibodies was added. After centrifugation, the plates were incubated at 25° C. for 60 minutes. Data was read in a PHERAstar FS plate reader (665 nm/620 nm ratio). Final concentrations in the assay were ˜3 nM of PD1, 10 nM of PD-L1, 1 nM of europium anti-human IgG, and 20 nM of anti-His-allophycocyanin. Activity data were fitted using GraphPad Prism 5.0 software to derive IC50 values for inhibitors.
# The IC50 values of the compounds exemplified in the examples are expressed in the following manner: IC50: +: ≤100 nM; ++: 100 nM˜1000 nM; +++: >1000 nM. The data of the example compounds obtained using the PD-1/PD-L1 homogeneous time-resolved fluorescence (HTRF) binding assay described in Example A were provided in Table 1.
# PD-1/PD-L1, sequence (Q9NZQ7 19-238): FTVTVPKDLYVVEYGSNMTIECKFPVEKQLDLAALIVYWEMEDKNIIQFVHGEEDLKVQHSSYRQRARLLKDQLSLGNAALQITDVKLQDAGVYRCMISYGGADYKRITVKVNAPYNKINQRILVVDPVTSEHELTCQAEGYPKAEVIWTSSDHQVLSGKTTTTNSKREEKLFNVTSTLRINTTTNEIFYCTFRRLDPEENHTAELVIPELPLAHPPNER
row,Structure (SMILES),IC50 [nM]
1,Cc1c(-c2ccc3c(c2)OCCO3)cccc1-c1nc2cc3c(c(C#N)c2o1)CC[C@H]3NCCC(=O)O [Compound 049],≤ 100
2,N#Cc1c2c(cc3nc(-c4cccc(-c5ccc6c(c5)OCCO6)c4Cl)oc13)[C@@H](N1CC[C@@H](C(=O)O)C1)CC2 [Compound 026],≤ 100
3,O=C(O)[C@@H]1CCN([C@@H]2CCc3c2cc2cc(-c4cccc(-c5ccccc5)c4Cl)oc2c3F)C1 [Compound 005],≤ 100
4,Cc1c(-c2ccc3c(c2)OCCO3)cccc1-c1cc2cc3c(c(C#N)c2o1)CC[C@H]3N1CC[C@@H](C(=O)O)C1 [Compound 013],≤ 100

# The remaining lines, values ahead:
row,IC50 [nM],Structure (SMILES)
1,≤ 100,N#Cc1c2c(cc3nc(-c4cccc(-c5ccc6c(c5)OCCO6)c4Cl)oc13)[C@H](N1CC[C@@H](C(=O)NS(=O)(=O)C3CC3)C1)CC2 [Compound 025]
2,≤ 100,N#Cc1c2c(cc3nc(-c4cccc(-c5ccc6c(c5)OCCO6)c4Cl)oc13)[C@H](NCCC(=O)O)CC2 [Compound 050]
3,≤ 100,Cc1c(-c2ccc3c(c2)OCCO3)cccc1-c1nc2cc3c(c(C#N)c2o1)CC[C@H]3N1CC[C@@H](C(=O)O)C1 [Compound 047]
